Assays:
[1] = test system: A2E-BDP present in human retinal pigment epithelial cells (ARPE-19); experiment: Screening of ability to remove A2E-fluorescent labeling substance (A2E-BDP), lysate fluorescence; format: cell-based; conditions: ARPE-19, 24 h, ARPE-19 loaded with 10 μM A2E-BDP 24 h, test compound 50 μM once, fluorescence ex 485/em 535 nm, read-out: Capacity (%) to remove A2E-BDP at 50 μM
Protocol: The human retinal pigment epithelial cell line (ARPE-19) used in the experiment was provided by ATCC (American Type Culture Collection). The ARPE-19 cell line was cultured in DMEM medium containing 10% FBS. After culture, the cells were dispensed into 96-well plates at a concentration of 4×10^3 cells/well and cultured for 24 hours. The ARPE-19 cell line was treated with A2E-fluorescent labeling substance (A2E-BDP) at a concentration of 10 μM for 24 hours to induce the accumulation of A2E-BDP in the ARPE-19 cell line.
In order to evaluate the intracellular A2E removal ability of the compound of the present invention, an easily detectable A2E-fluorescent labeling substance (A2E-BDP) was used. The ARPE-19 cells prepared by the above method were treated with each test compound at a concentration of 50 μM once, and then cultured for 24 hours. The cells were lysed by adding a cell lysis buffer containing a protease inhibitor (50 mM Tris-chloride, pH 8.0, 150 mM sodium chloride, 1% NP-40, 1% sodium deoxycholate, 1% sodium dodecyl sulfate, and 2 mM ethylenediamine tetraacetic acid) to each 96-well. The prepared cell lysate was transferred to a white 96-well plate, and the fluorescence intensity was measured using a fluorescence microplate reader (VICTOR™ X3, Perkin Elmer, USA) (excitation 485 nm, emission 535 nm).

LC3-II [2] = experiment: LC3-II production capacity at 10 μM (Table 4); format: cell-based; conditions: Homo sapiens, 12 h
Protocol: (§1) ARPE-19 was dispensed into a 6-well plate at a concentration of 1×10^5 cells/well and cultured for 24 hours. Then, cells were treated with example 17 compound of the present invention at concentrations of 10, 25, and 50 μM for 12 hours. Then, a cell lysis buffer containing a protease inhibitor was added to prepare a cell lysate. The LC3-II level was measured by Western immunoblotting using an anti-LC3-II antibody (Cell Signaling Technology, MA, USA). As an internal control, an antibody against β-actin (Cell Signaling Technology) was used and measured by Western immunoblotting in the same manner as above, and is shown in FIG. 6 (upper graph).
(§2) The autophagy activation effect of example compounds expected to have autophagy activation ability and low cytotoxicity among the example compounds in Table 2 above in human retinal pigment epithelial cells was evaluated according to Experimental Example 7. That is, the autophagy activation effect through the increase of LC3-II was evaluated in a concentration-dependent manner, and the results are shown in FIGS. 15 and 16.

LC3-II [3] = experiment: Concentration-dependent autophagy activation through increase of LC3-II (FIGS. 15 and 16); format: cell-based, human
Protocol: as §1, §2

Structure (SMILES)	inhibition at 50 µM [1] [%]	fold induction at 10 µM (LC3-II [2])	autophagy activation effect through the increase of LC3-II (LC3-II [3])
CCCc1cc(-c2cc(Br)ccc2OC)no1 [Example 1, 3-(5-bromo-2-methoxyphenyl)-5-propylisoxazole]	20.8		
CCCc1cc(-c2cc(Br)ccc2O)no1 [Example 2, 4-bromo-2-(5-propylisoxazole-3-yl)phenol]	28.2		
CCCc1ccc(OC)c(-c2cc(CCC)on2)c1 [Example 3, 3-(2-methoxy-5-propylphenyl)-5-propylisoxazole]	0.6		
C=CCc1ccc(OC)c(-c2cc(CCC)on2)c1 [Example 4, 3-(5-allyl-2-methoxyphenyl)-5-propylisoxazole]	24.7		
C=CCc1ccc(O)c(-c2cc(CCC)on2)c1 [Example 5, 4-allyl-2-(5-propylisoxazole-3-yl)phenol]	26.9		
CCCc1ccc(O)c(-c2cc(CCC)on2)c1 [Example 6, 4-propyl-2-(5-propylisoxazole-3-yl)phenol]	24		
COc1ccc(Br)cc1-c1cc(CO)on1 [Example 7, (3-(5-bromo-2-methoxyphenyl)isoxazole-5-yl)methanol]	16.6		
OCc1cc(-c2cc(Br)ccc2O)no1 [Example 8, 4-bromo-2-(5-(hydroxymethyl)isoxazole-3-yl)phenol]	-15.3		
C=CCOCc1cc(-c2cc(Br)ccc2OC)no1 [Example 9, 5-((allyloxy)methyl)-3-(5-bromo-2-methoxyphenyl)isoxazole]	26.2		
CCCc1ccc(OC)c(-c2cc(CO)on2)c1 [Example 10, (3-(2-methoxy-5-propylphenyl)isoxazole-5-yl)methanol]	7.7		
CCOC(=O)COCc1cc(-c2cc(Br)ccc2OC)no1 [Example 12, ethyl 2-((3-(5-bromo-2-methoxyphenyl)isoxazole-5-yl)methoxy)acetate]	21.7		
COCc1cc(-c2cc(Br)ccc2OC)no1 [Example 13, 3-(5-bromo-2-methoxyphenyl)-5-(methoxymethyl)isoxazole]	31		
CCCc1ccc(O)c(-c2cc(CO)on2)c1 [Example 14, 2-(5-(hydroxymethyl)isoxazole-3-yl)-4-propylphenol]	35.2		
C=CCc1ccc(OC)c(-c2cc(CO)on2)c1 [Example 15, (3-(5-allyl-2-methoxyphenyl)isoxazole-5-yl)methanol]	48.1		
C=CCc1ccc(O)c(-c2cc(CO)on2)c1 [Example 16, 4-allyl-2-(5-(hydroxymethyl)isoxazole-3-yl)phenol]	49.9		
C=CCc1ccc(OC)c(-c2cc(COCC(=O)OCC)on2)c1 [Example 19, ethyl 2-((3-(5-allyl-2-methoxyphenyl)isoxazole-5-yl)methoxy)acetate]	37.4		
CCCc1ccc(OC)c(-c2cc(COC)on2)c1 [Example 20, 3-(2-methoxy-5-propylphenyl)-5-(methoxymethyl)isoxazole]	17.2		
C=CCc1ccc(OC)c(-c2cc(CN3CCN(CC=C)CC3)on2)c1 [Example 22, 3-(5-allyl-2-methoxyphenyl)-5-((4-allylpiperazine-1-yl)methyl)isoxazole]	47.4		
C=CCc1ccc(OC)c(-c2cc(CN3CCN(Cc4ccccc4)CC3)on2)c1 [Example 23, 3-(5-allyl-2-methoxyphenyl)-5-((4-benzylpiperazine-1-yl)methyl)isoxazole]	45.5		

Structure (SMILES)	inhibition at 50 µM [1] [%]	fold induction at 10 µM (LC3-II [2])	autophagy activation effect through the increase of LC3-II (LC3-II [3])
C=CCc1ccc(OC)c(-c2cc(CN3CCN(CC(=O)OCC)CC3)on2)c1 [Example 24, ethyl 2-(4-((3-(5-allyl-2-methoxyphenyl)isoxazole-5-yl)methyl)piperazine-1-yl)acetate]	38.5		
C=CCc1ccc(OC)c(-c2cc(CN3CCN(C(=O)OC(C)(C)C)CC3)on2)c1 [Example 25, tert-butyl 4-((3-(5-allyl-2-methoxyphenyl)isoxazole-5-yl)methyl)piperazine-1-carboxylate]	45.9		
COc1ccc(Br)cc1-c1cc(CN2CCNCC2)on1 [Example 28, 3-(5-bromo-2-methoxyphenyl)-5-(piperazine-1-ylmethyl)isoxazole]		4.6	excellent autophagy activation effects
CCCc1ccc(OC)c(-c2cc(CN3CCNCC3)on2)c1 [Example 30, 3-(2-methoxy-5-propylphenyl)-5-(piperazine-1-ylmethyl)isoxazole]		2.3	excellent autophagy activation effects
COc1ccc(C(F)(F)F)cc1-c1cc(CN2CCNCC2)on1 [Example 34, 3-(2-methoxy-5-(trifluoromethyl)phenyl)-5-(piperazine-1-ylmethyl)isoxazole]		2.5	excellent autophagy activation effects
C=CCc1ccc(OC(F)(F)F)c(-c2cc(CN3CCN(C)CC3)on2)c1 [Example 52, 3-(5-allyl-2-(trifluoromethoxy)phenyl)-5-((4-methylpiperazine-1-yl)methyl)isoxazole]		> 13	
CCCc1ccc(OC)c(-c2cc(CN3C[C@@H](C)O[C@@H](C)C3)on2)c1 [Example 53, (2S,6R)-4-((3-(2-methoxy-5-propylphenyl)isoxazole-5-yl)methyl)-2,6-dimethylmorpholine]		0.9	
CCCc1ccc(OC)c(-c2cc(CN3CCC(OC)CC3)on2)c1 [Example 54, 3-(2-methoxy-5-propylphenyl)-5-((4-methoxypiperidine-1-yl)methyl)isoxazole]		2.8	
CCCc1ccc(OC)c(-c2cc(CN3CCC(C(=O)O)CC3)on2)c1 [Example 55, 1-((3-(2-methoxy-5-propylphenyl)isoxazole-5-yl)methyl)piperidine-4-carboxylic acid]		1.8	
CCCc1ccc(OC)c(-c2cc(CN3CCc4sccc4C3)on2)c1 [Example 56, 5-((6,7-dihydrothieno[3,2-c]pyridin-5(4H)-yl)methyl)-3-(2-methoxy-5-propylphenyl)isoxazole]		1.5	
CCCc1ccc(OC)c(-c2cc(CN3CCn4ccnc4C3)on2)c1 [Example 57, 5-((5,6-dihydroimidazo[1,2-a]pyrazin-7(8H)-yl)methyl)-3-(2-methoxy-5-propylphenyl)isoxazole]		1.1	
COc1ccc(CCO)cc1-c1cc(CN2CCN(C)CC2)on1 [Example 61, 2-(4-methoxy-3-(5-((4-methylpiperazine-1-yl)methyl)isoxazole-3-yl)phenyl)ethan-1-ol]		0.9	
COCCc1ccc(OC)c(-c2cc(CN3CCN(C)CC3)on2)c1 [Example 62, 3-(2-methoxy-5-(2-methoxyethyl)phenyl)-5-((4-methylpiperazine-1-yl)methyl)isoxazole]		2.4	
COc1ccc(C(C)C)cc1-c1cc(CN2CCN(C(C)=O)CC2)on1 [Example 63, 1-(4-((3-(5-isopropyl-2-methoxyphenyl)isoxazole-5-yl)methyl)piperazine-1-yl)ethan-1-on]		1.9	
C=CCc1ccc(OC)c(-c2cc(COc3ncnc4ccccc34)on2)c1 [Example 65, 3-(5-allyl-2-methoxyphenyl)-5-((quinazoline-4-yloxy)methyl)isoxazole]		1.8	
C=C(C)Cc1ccc(OC)c(-c2cc(CN3CCN(C(=O)OC(C)(C)C)CC3)on2)c1 [Example 66, tert-butyl 4-((3-(2-methoxy-5-(2-methylallyl)phenyl)isoxazole-5-yl)methyl)piperazine-1-carboxylate]		> 18	
C=C(C)Cc1ccc(OC)c(-c2cc(CN3CCNCC3)on2)c1 [Example 67, 3-(2-methoxy-5-(2-methylallyl)phenyl)-5-(piperazine-1-ylmethyl)isoxazole]		22.7	
C=C(C)Cc1ccc(OC)c(-c2cc(CO)on2)c1 [Example 68, (3-(2-methoxy-5-(2-methylallyl)phenyl)isoxazole-5-yl)methanol]		7.7	
COc1ccc(CC=C(C)C)cc1-c1cc(CN2CCN(C)CC2)on1 [Example 69, 3-(2-methoxy-5-(3-methylbut-2-en-1-yl)phenyl)-5-((4-methylpiperazine-1-yl)methyl)isoxazole]		5	

From patent US20250214951A1, “3-PHENYLISOXAZOLE DERIVATIVE, AND PHARMACEUTICAL COMPOSITION FOR PREVENTING OR TREATING EYE DISEASE, CONTAINING SAME AS ACTIVE INGREDIENT” (VASTHERA CO., LTD., priority 2022, published 2025)
